Measured values taken from US10385022B2, “3-amino-pyridines as GPBAR1 agonists” (HOFFMANN-LA ROCHE INC., priority 2011, dated 2019).

What follows are compounds tested against human GPBAR1 receptor (Homo sapiens (Human), UniProt Q8TDU6) (assay: functional cAMP assay in CHO-dhfr(minus) cells expressing human GPBAR1 receptors). Settings: CHO-dhfr(minus) cells expressing human GPBAR1, 30 min at 30° C.
Assay type: cell-based
In short: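 CHO-dhfr- cells were transfected with human GPBAR1, and a clone was chosen by cAMP response to lithocholic acid. EC50 values come from the cAMP read-out; specificity was checked in non-transfected CHO cells.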

Sequence of human GPBAR1 receptor (Q8TDU6 whole entry): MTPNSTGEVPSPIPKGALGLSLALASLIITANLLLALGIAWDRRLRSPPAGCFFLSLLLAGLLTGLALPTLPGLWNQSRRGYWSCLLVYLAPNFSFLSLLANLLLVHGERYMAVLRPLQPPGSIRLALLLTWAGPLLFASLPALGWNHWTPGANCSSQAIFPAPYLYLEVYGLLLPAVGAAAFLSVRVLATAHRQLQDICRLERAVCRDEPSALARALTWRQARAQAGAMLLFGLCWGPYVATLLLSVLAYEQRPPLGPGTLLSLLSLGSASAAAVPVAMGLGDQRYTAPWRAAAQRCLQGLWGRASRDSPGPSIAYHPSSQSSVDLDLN

Point of comparison: `COc1cc(F)ccc1-c1cc(C)ncc1N(C)C(=O)c1cc(Br)cc(C(F)(F)F)c1` [Example 303, 3-Bromo-N-[4-(4-fluoro-2-methoxy-phenyl)-6-methyl-pyridin-3-yl]-N-methyl-5-trifluoromethyl-benzamide], EC50 18 nM. Against it:
- COc1cccc(F)c1-c1ccncc1N(C)C(=O)c1cc(C(F)(F)F)cc(S(C)(=O)=O)c1 [Example 205, N-[4-(2-Fluoro-6-methoxy-phenyl)-pyridin-3-yl]-3-methanesulfonyl-N-methyl-5-trifluoromethyl-benzamide] — within 1.5-fold, 17 nM
- COc1cc(F)ccc1-c1ccncc1N(C)C(=O)c1cc(Cl)nc(C(F)(F)F)c1 [Example 169, 2-Chloro-N-[4-(4-fluoro-2-methoxy-phenyl)-pyridin-3-yl]-N-methyl-6-trifluoromethyl-isonicotinamide] — within 1.5-fold, 26 nM
- COc1cc(-c2ccncc2N(C)C(=O)c2cc(C(F)(F)F)cc(C(F)(F)F)c2)c(OC)nn1 [Example 54, N-[4-(3,6-Dimethoxy-pyridazin-4-yl)-pyridin-3-yl]-N-methyl-3,5-bis-trifluoromethyl-benzamide] — 110-fold higher, 1970 nM
- Cc1ccccc1-c1ccncc1N(C)C(=O)c1cc(C(F)(F)F)cc(C(F)(F)F)n1 [Example 190, 4,6-Bis-trifluoromethyl-pyridine-2-carboxylic acid methyl-(4-o-tolyl-pyridin-3-yl)-amide] — 4.9-fold higher, 89 nM
- CN(C(=O)c1cc(C(F)(F)F)cc(S(C)(=O)=O)c1)c1cnccc1-c1ccccc1OCc1ccccc1 [Example 258, N-[4-(2-Benzyloxy-phenyl)-pyridin-3-yl]-3-methanesulfonyl-N-methyl-5-trifluoromethyl-benzamide] — 100-fold higher, 1860 nM
- Cc1ccccc1-c1ccncc1N(C)C(=O)c1ccc(C(F)(F)F)c(F)c1 [Example 94, 3-Fluoro-N-methyl-N-(4-o-tolyl-pyridin-3-yl)-4-trifluoromethyl-benzamide] — 120-fold higher, 2160 nM
- CN(C(=O)c1cc(C(F)(F)F)cc(C(F)(F)F)c1)c1cnccc1-c1ccc(F)cc1OCC#N [Example 51, N-[4-(2-Cyanomethoxy-4-fluoro-phenyl)-pyridin-3-yl]-N-methyl-3,5-bis-trifluoromethyl-benzamide] — 3.3-fold higher, 60 nM
- COc1cc(F)ccc1-c1ccncc1N(CC1CCCCO1)C(=O)c1cc(C(F)(F)F)cc(S(C)(=O)=O)c1 (single isomer, unassigned; (+)) [Example 291, (+)-N-[4-(4-Fluoro-2-methoxy-phenyl)-pyridin-3-yl]-3-methanesulfonyl-N-[1-(tetrahydro-pyran-2-yl)methyl]-5-trifluoromethyl-benzamide] — 160-fold higher, 2840 nM
- CN(C(=O)c1cc(CO)cc(C(F)(F)F)c1)c1cnccc1-c1ccccc1Cl [Example 76, N-[4-(2-Chloro-phenyl)-pyridin-3-yl]-3-hydroxymethyl-N-methyl-5-trifluoromethyl-benzamide] — 110-fold higher, 1960 nM
- COc1ccc(F)cc1-c1ccncc1N(C)C(=O)c1cc(C(F)(F)F)cc(C(F)(F)F)c1 [Example 58, N-[4-(5-Fluoro-2-methoxy-phenyl)-pyridin-3-yl]-N-methyl-3,5-bis-trifluoromethyl-benzamide] — within 1.5-fold, 26 nM
- CS(=O)(=O)c1cc(C(=O)N(CC(F)(F)F)c2cnccc2-c2ccccc2F)cc(C(F)(F)F)c1 [Example 214, N-[4-(2-Fluoro-phenyl)-pyridin-3-yl]-3-methanesulfonyl-N-(2,2,2-trifluoro-ethyl)-5-trifluoromethyl-benzamide] — 15-fold higher, 265 nM
- COc1cc(F)c(F)cc1-c1ccncc1N(CC(N)=O)C(=O)c1cc(C(F)(F)F)nc(C(F)(F)F)c1 [Example 174, N-(2-Amino-2-oxoethyl)-N-(4-(4,5-difluoro-2-methoxyphenyl)pyridin-3-yl)-2,6-bis(trifluoromethyl)isonicotinamide] — 3-fold higher, 54 nM
- COc1ncccc1-c1ccncc1N(CC(F)(F)F)C(=O)c1cc(C(F)(F)F)cc(C(F)(F)F)c1 [Example 135, N-(2-Methoxy-[3,4′]bipyridinyl-3′-yl)-N-(2,2,2-trifluoro-ethyl)-3,5-bis-trifluoromethyl-benzamide] — 5.1-fold higher, 91 nM
